In patent US20230120564A1, “PYRIDO[3,4-D]PYRIMIDINE DERIVATIVE AND THERAPEUTIC PHARMACEUTIC COMPOSITION COMPRISING SAME” (KOREA INSTITUTE OF SCIENCE AND TECHNOLOGY, priority 2020, published 2023):

What was measured:
Assay in all cases: full kinase panel biochemical assay
BLK = BLK (Homo sapiens, UniProt P51451); conditions: single concentration of 1 μM; read-out: percent inhibition of BLK
Protocol: (§1) In order to measure the protein kinase inhibitory activity (% inhibition) of the compound of the present invention, biochemical assay was performed in the full kinase panel. As a test compound, Compound No. 4 was used. The percent inhibition of each kinase when treated with the test compound at a single concentration of 1 μM was measured, and the residual enzyme activity values (%) of the kinases were calculated. Kinases whose calculated residual enzyme activity values (%) was 30% or less (i.e., kinases inhibited by 70% or more) are as follows: ABL1, ABL2/ARG, ACK1, ARAF, BLK, BMX/ETK, BRAF, BRK, BTK, c-Kit, c-Src, CSK, DDR1, DDR2, EPHA1, EPHA2, EPHA3, EPHA4, EPHA5, EPHA6, EPHA7, EPHA8, EPHB1, EPHB2, EPHB3, EPHB4, ERBB2/HER2, ERBB4/HER4, FGFR1, FGFR2, FGFR3, FGR, FLT1/VEGFR1, FLT4/VEGFR3, FMS, FRK/PTK5, FYN, GCK/MAP4K2, HCK, HGK/MAP4K4, JAK1, JAK2, KDR/VEGFR2, KHS/MAP4K5, LCK, LYN, LYN B, MEKK1, MLK4, MYLK3, NEK5, P38a/MAPK14, P38b/MAPK11, PDGFRa, PDGFRb, PEAK1, RET, RIPK2, RIPK4, SIK2, SRPK1, TAOK3/JIK, TLK1, TNK1, TXK, TYK2, YES/YES1, YSK4/MAP3K19, and ZAK/MLTK.

BRAF = BRAF (Homo sapiens, UniProt P15056); conditions: single concentration of 1 μM; read-out: percent inhibition of BRAF
Protocol: as §1

CSK = CSK (Homo sapiens, UniProt P41240); conditions: single concentration of 1 μM; read-out: percent inhibition of CSK
Protocol: as §1

EPHB3 = EPHB3 (Homo sapiens, UniProt P54753); conditions: single concentration of 1 μM; read-out: percent inhibition of EPHB3
Protocol: as §1

ERBB2/HER2 = ERBB2/HER2 (Homo sapiens, UniProt P04626); conditions: single concentration of 1 μM; read-out: percent inhibition of ERBB2/HER2
Protocol: as §1

ERBB4/HER4 = ERBB4/HER4 (Homo sapiens, UniProt Q15303); conditions: single concentration of 1 μM; read-out: percent inhibition of ERBB4/HER4
ERBB4/HER4, sequence (Q15303 26-1308): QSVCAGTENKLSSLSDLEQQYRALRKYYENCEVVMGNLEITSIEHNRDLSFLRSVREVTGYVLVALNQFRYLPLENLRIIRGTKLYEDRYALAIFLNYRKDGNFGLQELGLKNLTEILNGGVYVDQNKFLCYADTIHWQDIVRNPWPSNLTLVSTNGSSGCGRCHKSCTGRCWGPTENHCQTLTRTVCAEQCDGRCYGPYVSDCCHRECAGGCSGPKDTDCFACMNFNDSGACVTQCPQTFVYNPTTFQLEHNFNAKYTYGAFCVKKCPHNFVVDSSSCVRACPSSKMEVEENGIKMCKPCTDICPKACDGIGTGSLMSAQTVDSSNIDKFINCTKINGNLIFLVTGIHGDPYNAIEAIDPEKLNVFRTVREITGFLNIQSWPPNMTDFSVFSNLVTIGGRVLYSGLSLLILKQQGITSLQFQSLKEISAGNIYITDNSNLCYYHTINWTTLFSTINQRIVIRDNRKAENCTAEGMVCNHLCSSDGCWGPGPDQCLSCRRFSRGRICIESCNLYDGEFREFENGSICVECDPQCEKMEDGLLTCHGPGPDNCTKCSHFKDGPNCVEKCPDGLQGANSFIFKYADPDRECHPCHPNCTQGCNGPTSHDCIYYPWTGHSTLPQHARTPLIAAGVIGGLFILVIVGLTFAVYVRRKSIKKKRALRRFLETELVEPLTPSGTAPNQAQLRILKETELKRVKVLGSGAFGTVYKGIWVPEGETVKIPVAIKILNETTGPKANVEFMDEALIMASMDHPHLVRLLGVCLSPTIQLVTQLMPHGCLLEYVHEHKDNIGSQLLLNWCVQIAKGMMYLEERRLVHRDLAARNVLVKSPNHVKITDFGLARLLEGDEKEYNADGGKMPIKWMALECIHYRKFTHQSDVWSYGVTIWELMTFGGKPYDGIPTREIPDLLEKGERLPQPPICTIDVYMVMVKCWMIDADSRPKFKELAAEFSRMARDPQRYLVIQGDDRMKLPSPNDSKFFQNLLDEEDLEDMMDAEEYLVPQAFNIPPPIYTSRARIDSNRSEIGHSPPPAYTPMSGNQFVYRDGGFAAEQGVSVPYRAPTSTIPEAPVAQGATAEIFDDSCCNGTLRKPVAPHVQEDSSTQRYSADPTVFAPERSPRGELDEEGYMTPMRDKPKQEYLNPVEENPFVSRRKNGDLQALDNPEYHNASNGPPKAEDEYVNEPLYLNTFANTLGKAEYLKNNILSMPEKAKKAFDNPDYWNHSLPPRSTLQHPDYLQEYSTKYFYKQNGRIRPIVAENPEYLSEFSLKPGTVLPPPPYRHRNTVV
Protocol: as §1

FGFR2 = FGFR2 (Homo sapiens, UniProt P21802); conditions: single concentration of 1 μM; read-out: percent inhibition of FGFR2
Protocol: as §1

FLT1/VEGFR1 = FLT1/VEGFR1 (Homo sapiens, UniProt P17948); conditions: single concentration of 1 μM; read-out: percent inhibition of FLT1/VEGFR1
Protocol: as §1

FMS = FMS (Homo sapiens, UniProt P07333); conditions: single concentration of 1 μM; read-out: percent inhibition of FMS
FMS, sequence (P07333 20-972): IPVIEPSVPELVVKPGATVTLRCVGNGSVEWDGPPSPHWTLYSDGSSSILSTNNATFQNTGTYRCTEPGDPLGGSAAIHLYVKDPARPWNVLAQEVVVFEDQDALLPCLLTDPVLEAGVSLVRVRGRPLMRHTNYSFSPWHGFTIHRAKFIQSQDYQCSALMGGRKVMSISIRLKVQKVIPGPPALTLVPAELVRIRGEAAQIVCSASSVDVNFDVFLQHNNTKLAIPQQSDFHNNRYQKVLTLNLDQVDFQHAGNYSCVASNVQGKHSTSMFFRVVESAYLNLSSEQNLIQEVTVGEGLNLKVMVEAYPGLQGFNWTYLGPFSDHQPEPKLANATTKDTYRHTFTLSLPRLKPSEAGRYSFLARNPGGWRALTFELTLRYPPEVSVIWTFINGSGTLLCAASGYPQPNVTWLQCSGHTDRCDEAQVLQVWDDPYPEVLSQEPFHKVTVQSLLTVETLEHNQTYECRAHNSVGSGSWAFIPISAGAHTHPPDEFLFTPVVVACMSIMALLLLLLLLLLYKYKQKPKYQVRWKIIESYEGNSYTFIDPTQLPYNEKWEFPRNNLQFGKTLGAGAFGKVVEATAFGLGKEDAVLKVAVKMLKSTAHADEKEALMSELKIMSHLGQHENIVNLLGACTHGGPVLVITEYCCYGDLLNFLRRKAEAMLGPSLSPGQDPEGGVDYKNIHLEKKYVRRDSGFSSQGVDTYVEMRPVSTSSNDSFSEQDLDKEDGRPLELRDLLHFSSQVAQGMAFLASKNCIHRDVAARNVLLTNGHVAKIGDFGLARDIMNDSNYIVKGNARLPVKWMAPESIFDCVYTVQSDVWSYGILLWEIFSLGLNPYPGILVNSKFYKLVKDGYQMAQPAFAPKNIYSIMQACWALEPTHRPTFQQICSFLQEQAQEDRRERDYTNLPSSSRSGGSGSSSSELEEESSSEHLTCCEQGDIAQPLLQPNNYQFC
Protocol: as §1

FRK/PTK5 = FRK/PTK5 (Homo sapiens, UniProt P42685); conditions: single concentration of 1 μM; read-out: percent inhibition of FRK/PTK5
Protocol: as §1

FYN = FYN (Homo sapiens, UniProt P06241); conditions: single concentration of 1 μM; read-out: percent inhibition of FYN
Protocol: as §1

JAK2 = JAK2 (Homo sapiens, UniProt O60674); conditions: single concentration of 1 μM; read-out: percent inhibition of JAK2
Protocol: as §1

LYN = LYN (Homo sapiens, UniProt P07948); conditions: single concentration of 1 μM; read-out: percent inhibition of LYN
Protocol: as §1

LYN B = LYN B (Homo sapiens, UniProt P07948); conditions: single concentration of 1 μM; read-out: percent inhibition of LYN B
Protocol: as §1

MEKK1 = MEKK1 (Homo sapiens, UniProt Q13233); conditions: single concentration of 1 μM; read-out: percent inhibition of MEKK1
Protocol: as §1

MLK4 = MLK4 (Homo sapiens, UniProt Q5TCX8); conditions: single concentration of 1 μM; read-out: percent inhibition of MLK4
MLK4, sequence (Q5TCX8 whole entry): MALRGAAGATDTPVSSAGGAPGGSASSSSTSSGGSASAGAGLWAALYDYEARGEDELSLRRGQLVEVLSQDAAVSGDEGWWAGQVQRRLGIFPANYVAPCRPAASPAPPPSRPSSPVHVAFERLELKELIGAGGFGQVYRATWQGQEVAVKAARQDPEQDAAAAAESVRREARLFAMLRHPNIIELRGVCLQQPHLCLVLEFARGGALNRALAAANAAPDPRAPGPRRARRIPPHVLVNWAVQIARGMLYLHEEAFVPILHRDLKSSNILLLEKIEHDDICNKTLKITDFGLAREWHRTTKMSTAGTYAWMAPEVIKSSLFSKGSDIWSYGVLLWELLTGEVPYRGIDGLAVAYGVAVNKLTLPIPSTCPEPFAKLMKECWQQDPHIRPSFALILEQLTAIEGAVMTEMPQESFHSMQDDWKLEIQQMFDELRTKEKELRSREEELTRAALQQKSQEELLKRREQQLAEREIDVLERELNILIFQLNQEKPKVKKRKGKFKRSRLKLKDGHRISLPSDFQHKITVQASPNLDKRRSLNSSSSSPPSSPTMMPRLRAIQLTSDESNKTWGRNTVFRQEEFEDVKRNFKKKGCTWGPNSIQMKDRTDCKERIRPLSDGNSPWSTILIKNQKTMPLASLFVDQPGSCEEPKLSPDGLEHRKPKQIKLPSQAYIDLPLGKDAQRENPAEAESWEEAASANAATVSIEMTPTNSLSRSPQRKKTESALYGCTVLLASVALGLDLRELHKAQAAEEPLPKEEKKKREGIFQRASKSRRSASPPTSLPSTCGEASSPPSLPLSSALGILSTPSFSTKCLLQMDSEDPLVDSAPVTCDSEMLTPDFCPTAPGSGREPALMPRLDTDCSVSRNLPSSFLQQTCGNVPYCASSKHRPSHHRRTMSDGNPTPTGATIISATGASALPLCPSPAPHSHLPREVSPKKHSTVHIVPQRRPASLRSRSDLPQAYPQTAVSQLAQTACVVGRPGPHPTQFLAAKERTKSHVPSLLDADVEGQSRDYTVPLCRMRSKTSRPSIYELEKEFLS
Protocol: as §1

NEK5 = NEK5 (Homo sapiens, UniProt Q6P3R8); conditions: single concentration of 1 μM; read-out: percent inhibition of NEK5
Protocol: as §1

PDGFRb = PDGFRb (Homo sapiens, UniProt P09619); conditions: single concentration of 1 μM; read-out: percent inhibition of PDGFRb
PDGFRb, sequence (P09619 33-1106): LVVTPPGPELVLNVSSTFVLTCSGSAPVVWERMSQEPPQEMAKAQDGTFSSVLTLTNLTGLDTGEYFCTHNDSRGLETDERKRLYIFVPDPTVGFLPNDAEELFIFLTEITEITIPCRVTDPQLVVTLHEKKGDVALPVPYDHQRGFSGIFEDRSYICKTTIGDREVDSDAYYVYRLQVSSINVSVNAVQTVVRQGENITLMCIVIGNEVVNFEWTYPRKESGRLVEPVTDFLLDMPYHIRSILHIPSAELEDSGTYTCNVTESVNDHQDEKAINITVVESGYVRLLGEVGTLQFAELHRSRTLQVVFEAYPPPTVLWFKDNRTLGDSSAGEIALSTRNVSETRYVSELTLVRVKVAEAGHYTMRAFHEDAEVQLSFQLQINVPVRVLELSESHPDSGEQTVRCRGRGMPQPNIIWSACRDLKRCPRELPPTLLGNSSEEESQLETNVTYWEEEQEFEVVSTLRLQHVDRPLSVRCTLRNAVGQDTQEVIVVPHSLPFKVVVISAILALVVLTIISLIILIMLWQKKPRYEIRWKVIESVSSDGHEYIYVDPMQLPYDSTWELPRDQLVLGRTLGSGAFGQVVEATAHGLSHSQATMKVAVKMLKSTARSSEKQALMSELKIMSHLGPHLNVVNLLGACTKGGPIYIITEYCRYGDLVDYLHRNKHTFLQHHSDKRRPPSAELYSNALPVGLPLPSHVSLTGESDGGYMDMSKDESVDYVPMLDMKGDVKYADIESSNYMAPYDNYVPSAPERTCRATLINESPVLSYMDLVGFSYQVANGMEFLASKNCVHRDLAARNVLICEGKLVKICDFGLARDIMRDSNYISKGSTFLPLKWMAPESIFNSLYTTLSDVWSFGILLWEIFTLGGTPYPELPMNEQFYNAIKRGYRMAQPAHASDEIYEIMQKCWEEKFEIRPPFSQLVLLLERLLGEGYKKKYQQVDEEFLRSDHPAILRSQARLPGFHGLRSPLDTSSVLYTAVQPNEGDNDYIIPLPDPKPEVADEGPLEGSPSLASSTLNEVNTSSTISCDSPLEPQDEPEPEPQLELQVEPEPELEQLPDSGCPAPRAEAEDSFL
Protocol: as §1

RET = RET (Homo sapiens, UniProt P07949); conditions: single concentration of 1 μM; read-out: percent inhibition of RET
Protocol: as §1

RIPK2 = RIPK2 (Homo sapiens, UniProt O43353); conditions: single concentration of 1 μM; read-out: percent inhibition of RIPK2
RIPK2, sequence (O43353 whole entry): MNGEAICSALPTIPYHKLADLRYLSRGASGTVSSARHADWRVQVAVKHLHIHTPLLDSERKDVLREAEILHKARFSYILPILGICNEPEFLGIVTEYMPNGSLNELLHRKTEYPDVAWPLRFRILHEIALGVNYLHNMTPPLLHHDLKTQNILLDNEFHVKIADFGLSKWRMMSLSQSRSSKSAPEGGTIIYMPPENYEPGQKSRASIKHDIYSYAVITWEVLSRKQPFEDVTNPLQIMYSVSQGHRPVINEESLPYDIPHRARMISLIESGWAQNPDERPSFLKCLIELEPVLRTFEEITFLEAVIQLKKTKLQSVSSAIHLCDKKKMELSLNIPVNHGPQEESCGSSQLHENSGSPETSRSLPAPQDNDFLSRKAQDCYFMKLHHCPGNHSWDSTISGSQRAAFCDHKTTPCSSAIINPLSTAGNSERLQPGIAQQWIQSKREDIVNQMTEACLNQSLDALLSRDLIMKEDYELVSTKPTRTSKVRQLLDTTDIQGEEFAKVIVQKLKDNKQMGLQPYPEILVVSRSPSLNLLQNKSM
Protocol: as §1

TNK1 = TNK1 (Homo sapiens, UniProt Q13470); conditions: single concentration of 1 μM; read-out: percent inhibition of TNK1
Protocol: as §1

YSK4/MAP3K19 = YSK4/MAP3K19 (Homo sapiens, UniProt Q56UN5); conditions: single concentration of 1 μM; read-out: percent inhibition of YSK4/MAP3K19
Protocol: as §1

ZAK/MLTK = ZAK/MLTK (Homo sapiens, UniProt Q9NYL2); conditions: single concentration of 1 μM; read-out: percent inhibition of ZAK/MLTK
Protocol: as §1

c-Kit = c-Kit (Homo sapiens, UniProt P10721); conditions: single concentration of 1 μM; read-out: percent inhibition of c-Kit
Protocol: as §1

Measured: inhibition at 1 µM

Cc1ccc(Nc2ncc3cc(-c4cc(NC(=O)c5cccc(C(F)(F)F)c5)ccc4C)ncc3n2)cn1 [Compound No. 4, N-(4-methyl-3-(2-((6-methylpyridin-3-yl)amino)pyrido[3,4-d]pyrimidin-6-yl)phenyl)-3-(trifluoromethyl)benzamide]
≥ 70%: all assays above
